Assay results: US20030109418A1, “Methods for identifying compounds for inhibition of neoplastic lesions, and pharmaceutical compositions containing such compounds” (priority 1999, published 2003)
Like-named read-outs stand apart in the source and are kept apart here. Values belong to the compound of their own block, whether it stands above or below them.

What was measured:
[1] = target: T1, purified cyclooxygenase (Type 1, COX-I) from ram seminal vesicles (Ovis aries, UniProt P05979); assay: COX inhibition assay, purified cyclooxygenase; assay type: biochemical; settings: for COX Inhibition: qualitative activity profile
T1 construct: using purified cyclooxygenase from ram seminal vesicles as described previously; tissue Cayman Chemical, Ann Arbor, Mich; (named in the general protocol only); host or cells: ram seminal vesicles
T1 sequence (P05979 25-600): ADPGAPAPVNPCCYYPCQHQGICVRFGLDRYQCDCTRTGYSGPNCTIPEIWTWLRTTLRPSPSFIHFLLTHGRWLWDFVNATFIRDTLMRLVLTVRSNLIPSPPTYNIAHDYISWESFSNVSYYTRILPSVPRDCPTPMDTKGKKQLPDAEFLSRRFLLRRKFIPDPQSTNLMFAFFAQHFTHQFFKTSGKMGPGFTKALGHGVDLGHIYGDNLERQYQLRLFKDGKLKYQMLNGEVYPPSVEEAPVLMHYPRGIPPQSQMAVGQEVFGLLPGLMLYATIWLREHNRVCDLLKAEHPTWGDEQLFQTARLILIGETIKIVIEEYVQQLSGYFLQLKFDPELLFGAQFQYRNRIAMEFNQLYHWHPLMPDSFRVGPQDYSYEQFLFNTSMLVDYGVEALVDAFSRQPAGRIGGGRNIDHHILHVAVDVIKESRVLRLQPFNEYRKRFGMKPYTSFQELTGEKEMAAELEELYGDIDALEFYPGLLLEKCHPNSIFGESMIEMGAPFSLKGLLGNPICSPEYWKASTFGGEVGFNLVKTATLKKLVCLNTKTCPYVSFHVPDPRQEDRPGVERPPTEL

[2] = system: cGMP PDE purified from human colon HT-29 cultured tumor cells; assay: cGMP PDE inhibition assay; assay type: biochemical; settings: for PDE Inhibition: qualitative activity profile
[3] = system: HT-29 colon adenocarcinoma cells; assay: Apoptosis by DNA fragmentation assay in HT-29; assay type: cell-based, human; settings: qualitative activity profile; further: key: −: Not active; +: Slightly active; ++: Moderately active; +++: Strongly active; ++++: Highly active
[4] = system: HT-29 human colon carcinoma cell line; assay: Growth inhibition, SRB assay, HT-29; assay type: cell-based; design: Growth Inhibition: key to the marks not given beside the values; settings: for Growth Inhibition: qualitative activity profile; for IC50: HT-29 treated for 6 days, SRB assay, read-out: Growth inhibition (IC50)
[5] = system: premalignant lesions in mouse mammary gland organ culture; assay: Mammary gland organ culture model; assay type: cell-based; settings: for Mammary Gland Organ Culture: qualitative activity profile; on mammary gland organ culture: key: −: Not active; +: Slightly active; ++: Moderately active; +++: Strongly active; ++++: Highly active
Excerpt: Test compounds identified by the above methods can be tested for antineoplastic activity by their ability to inhibit the incidence of pre-neoplastic lesions in a mammary gland organ culture system. This mouse mammary gland organ culture technique has been successfully used by other investigators to study the effects of known antineoplastic agents such as certain NSAIDs, retinoids, tamoxifen, selenium, and certain natural products, and is useful for validation of the screening method of the present invention.
For example, female BALB/c mice can be treated with a combination of estradiol and progesterone daily, in order to prime the glands to be responsive to hormones in vitro. The animals are sacrificed, and thoracic mammary glands are excised aseptically and incubated for ten days in growth media supplemented with insulin, prolactin, hydrocortisone, and aldosterone. DMBA (7,12-dimethylbenz(a)anthracene) is added to medium to induce the formation of premalignant lesions. Fully developed glands are then deprived of prolactin, hydrocortisone, and aldosterone, resulting in the regression of the glands but not the pre-malignant lesions.
The test compound is dissolved in DMSO and added to the culture media for the duration of the culture period. At the end of the culture period, the glands are fixed in 10% formalin, stained with alum carmine, and mounted on glass slides. The incidence of forming mammary lesions is the ratio of the glands with mammary lesions to […]. The incidence of mammary lesions in test compound treated glands is compared with that of the untreated glands.
The extent of the area occupied by the mammary lesions can be quantitated by projecting an image of the gland onto a digitation pad. The area covered by the gland is traced on the pad and considered as 100% of the area. The space covered by each of the non-regressed structures is also outlined on the digitization pad and quantitated by the computer.
Mammary gland organ culture experiment were performed as previously described (Mehta and Moon, Cancer Research, 46: 5832-5835, 1986). […] The data support the hypothesis that cyclooxygenase inhibition is not necessary for the anti-neoplastic properties of desired compounds.

[6] = target: T2, cGMP binding sites of the GST-cGB-PDE5 protein (Homo sapiens, UniProt O76074); assay: cGMP binding assay with GST-cGB-PDE5 fusion protein; settings: for competition with cGMP binding at high concentration: 100 μM competitor, cGMP 2 μM
T2 construct: made in house; host or cells: E. coli BL21 (DE3)

[7] = system: HT-29 cells; assay: Apoptosis and necrosis by morphology (acridine orange and ethidium bromide); assay type: cell-based, human; settings: HT-29 treated for 6 days
Excerpt: Apoptosis occurs naturally during normal tissue turnover and during embryonic development of organs and limbs. Apoptosis also is induced by cytotoxic T-lymphocytes and natural killer cells, by ionizing radiation and by certain chemotherapeutic drugs. Inappropriate regulation of apoptosis is thought to play an important role in many pathological conditions including cancer, AIDS, or Alzheimer's disease, etc. Compounds can be screened for induction of apoptosis using cultures of tumor cells maintained under conditions as described above. Treatment of cells with test compounds involves either pre- or post-confluent cultures and treatment for two to seven days at various concentrations. Apoptotic cells are measured in both the attached and “floating” compartments of the cultures. Both compartments are collected by removing the supernatant, trypsinizing the attached cells, and combining both preparations following a centrifugation wash step (10 minutes, 2000 rpm). The protocol for treating tumor cell cultures with sulindac and related compounds to obtain a significant amount of apoptosis has been described in the literature. (See, Piazza, G. A., et al., Cancer Research, 55:3110-16, 1995, which is incorporated herein by reference). The novel features include collecting both floating and attached cells, identification of the optimal treatment times and dose range for observing apoptosis, and identification of optimal cell culture conditions.
Following treatment with a compound, cultures can be assayed for apoptosis and necrosis by florescent microscopy following labeling with acridine orange and ethidium bromide. The method for measuring apoptotic cell number has previously been described by Duke & Cohen, “Morphological And Biochemical Assays Of Apoptosis,” Current Protocols In Immunology, Coligan et al., eds., 3.17.1-3.17.16 (1992, which is incorporated herein by reference).
For example, floating and attached cells can be collected by trypsinization and washed three times in PBS. Aliquots of cells can be centrifuged. The pellet can then be re-suspended in media and a dye mixture containing acridine orange and ethidium bromide prepared in PBS and mixed gently. The mixture can then be placed on a microscope slide and examined for morphological features of apoptosis.
Reference compounds and test compounds were analyzed for their novel PDE inhibitory activity in accordance with the protocols for the assay, supra. […] Apoptotic and necrotic cell death was determined previously (Duke and Cohen, In: Current Protocols in Immunology, 3.17.1-3.17.16, New York, John Wiley and Sons, 1992). […] All data were collected from the same experiment.
The apoptosis inducing activity for a series of phosphodiesterase inhibitors was determined. HT-29 cell were treated for 6 days with various inhibitors of phosphodiesterase. Apoptosis and necrosis were determined morphologically after acridine orange and ethidium bromide labeling in accordance with the assay described, supra.

[8] = target: T3, PDE peak A (PDE5) from SW480 cells (Homo sapiens, UniProt O76074); assay: cGMP hydrolysis inhibition, PDE peak A from SW480; assay type: biochemical
T3 construct: endogenous in cells; host or cells: SW480 colon cancer cells, DEAE-Trisacryl M fraction

[9] = system: cGMP and cAMP levels in HT-29 cells; assay: Cyclic nucleotide levels in cultured cells by radioimmunoassay; assay type: cell-based, human; settings: HT-29 cells treated 30 minutes

Compound: CCCCOC1C2OP(=O)(O)OCC2OC1n1cnc2c(N)ncnc21 (centres unmarked) [2′-O-butyl-cAMP]
- competition with cGMP in binding of GST-cGB-PDE5 ([6]; 3H-cGMP 2 μM): did not compete with cGMP in binding

Compound: CCCCOC1C2OP(=O)(O)OCC2OC1n1cnc2c(=O)[nH]c(N)nc21 (centres unmarked) [2′-O-butyl-cGMP]
- competition with cGMP in binding of GST-cGB-PDE5 ([6]; 3H-cGMP 2 μM): did not compete with cGMP in binding

Compound: COc1nc2c([nH]1)c(=O)n(C)c(=O)n2CC(C)C [8-methoxy-IBMX]
- % Apoptosis [7]: 2%
- % Necrosis [7]: 1%
- IC50 [4]: > 200 µM

Compound: CC1=C(CC(=O)O)c2cc(F)ccc2/C1=C\c1ccc(Cl)cc1 [Compound C, (Z)-5-Fluoro-2-methyl-1-(p-chlorobenzylidene)-3-acetic acid]
- cGMP PDE inhibitory activity, % Inhibition at 10 μM ([2]; 10 μM): <25%
- Growth-inhibitory activity, % Inhibition at 100 μM [4]: 80%

Compound: Nc1ncnc2c1ncn2[C@@H]1O[C@@H]2COP(=O)(O)O[C@H]2[C@H]1O [Cyclic AMP]
- competition with cGMP in binding of GST-cGB-PDE5 [6]: did not compete with cGMP in binding

Compound: COc1ccc(C2CNC(=O)C2)cc1OC1CCCC1 (centres unmarked) [Rolipram]
- effect on cAMP levels [9]: increased cAMP

Compound: CCCOc1ccccc1-c1nc2nn[nH]c2c(=O)[nH]1 [Zaprinast]
- competition with cGMP in binding of GST-cGB-PDE5 ([6]; 3H-cGMP 2 μM): do not bind to the cGMP binding sites of PDE5

Compound: CC1=C(CC(=O)O)c2cc(F)ccc2/C1=C\c1ccc([S+](C)[O-])cc1 (centres unmarked) [sulindac]
- inhibition of the formation of premalignant lesions ([5]; mammary gland organ culture): effectively inhibit the formation of premalignant lesions

Compound: rac-(E)-1-(butan-1′, 4′-olido)-[3′, 4′: 1,2]-6-fluoro-2-methyl-3-(p-methylsulfonylbenzylidene)-1S-indanyl-glutathione)
- COX Inhibition [1]: −
- PDE Inhibition [2]: −
- Apoptosis [3]: −
- Growth Inhibition [4]: ++
- Mammary Gland Organ Culture [5]: −

Compound: ribo-(E)-1-Triazolo-[2′, 3′: 1″, 3″]-1-(butan-1′, 4′-olido)-[3′, 4′: 1, 2]-6-flouro-2-methyl-3-(p-methylsulfonylbenzylidene)-indan [G]
- COX Inhibition [1]: −
- PDE Inhibition [2]: −
- Apoptosis [3]: ++
- Growth Inhibition [4]: +++
- Mammary Gland Organ Culture [5]: +++

More lines, main results first:

- Cyclooxygenase inhibitory activity, % Inhibition at 100 μM [1]: <25%
- COX Inhibition [1]: −
Compound: CC(=O)NC(CSC12CC(=O)OC1(C)/C(=C/c1ccc(S(C)(=O)=O)cc1)c1ccc(F)cc12)C(=O)O (racemic) [D, rac-(E)-1-(butan-1′,4′-olido)-[3′,4′: 1,2]-6-fluoro-2-methyl-3-(p-methylsulfonylbenzylidene)-1S-indanyl-N-acetylcysteine]
- PDE Inhibition [2]: −
- Apoptosis [3]: −
- Growth-inhibitory activity, % Inhibition at 100 μM [4]: 78%
- Growth Inhibition [4]: ++
- Mammary Gland Organ Culture [5]: −

- competition with cGMP binding at high concentration [6]: can partially compete
Compound: Nc1nc2c(nc(Br)n2[C@@H]2O[C@@H]3COP(=O)(O)O[C@H]3[C@H]2O)c(=O)[nH]1 [Compound 8-bromo-cGMP]

- competition with cGMP binding at high concentration [6]: can partially compete
Compound: O=c1[nH]cnc2c1ncn2[C@@H]1O[C@@H]2COP(=O)(O)O[C@H]2[C@H]1O [Cyclic IMP]

- COX Inhibition [1]: −
Compound: CC1=C(CC(=O)N(C2CCCCC2)C2CCCCC2)c2cc(F)ccc2/C1=C\c1ccc(S(C)(=O)=O)cc1 [F, (Z)-5-Fluoro-2-methyl-1-(p-methylsulfonylbenzylidene)-3-indenylacetamide, N,N′-dicyclohexyl]
- PDE Inhibition [2]: −
- Apoptosis [3]: +
- Growth Inhibition [4]: ++
- Mammary Gland Organ Culture [5]: −

- IC50 [4]: > 100 µM
Compound: CC(C)Cn1c(=O)n(C)c(=O)c2[nH]cnc21 [IBMX]
- % Apoptosis [7]: 4%
- % Necrosis [7]: 13%

- Ratio (IC50 Peak A/Peak B) [8]: <0.31
Compound: CC1(C)C(=O)Nc2ccc(C3=NNC(=O)CC3)cc21 [Indolidan]

- Cyclooxygenase inhibitory activity, % Inhibition at 100 μM [1]: 94%
- COX Inhibition [1]: ++++
- IC50 [4]: 5 µM
Compound: Clc1cccc(Nc2nnc(-c3ccccc3)c3ccccc23)c1 [MY5445, 1-(3-chloroanilino)-4-phenyphthalazine]
- PDE Inhibition [2]: +++
- Apoptosis [3]: +++
- % Apoptosis [7]: 80%
- % Necrosis [7]: 5%
- Growth Inhibition [4]: +++
- Mammary Gland Organ Culture [5]: +

- IC50 [4]: > 200 µM
Compound: CCCCOc1cc(CC2CNC(=O)N2)ccc1OC (centres unmarked) [RO-20-1724]
- % Apoptosis [7]: 11%
- % Necrosis [7]: 2%

- competition with cGMP in binding of GST-cGB-PDE5 ([6]; 3H-cGMP 2 μM): did not compete with cGMP in binding
Compound: Nc1ccn([C@@H]2O[C@@H]3COP(=O)(O)O[C@H]3[C@H]2O)c(=O)n1 [cCMP]

- competition with cGMP in binding of GST-cGB-PDE5 ([6]; 3H-cGMP 2 μM): did not compete with cGMP in binding
Compound: O=c1ccn([C@@H]2O[C@@H]3COP(=O)(O)O[C@H]3[C@H]2O)c(=O)[nH]1 [cUMP]
